{"source": "patent US12116388B2", "about": "“Amylin receptor agonists” (Novo Nordisk A/S, priority 2022, dated 2024)", "key": {"[1]": {"experiment": "Oral pharmacokinetic profiles in Beagle dogs (SNAC tablets)", "type": "in vivo", "conditions": "oral tablet: 3 mg compound, 300 mg SNAC, 7.7 mg magnesium stearate; for half-life: male, dog, plasma, read-out: T½ (converted)", "how_it_was_run": "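Male Beagle dogs, fasted overnight, received an oral immediate-release tablet of 3 mg compound with 300 mg SNAC, 10 min after ~3.2 nmol/kg subcutaneous glucagon. EDTA plasma sampled up to 288 h post-dose; concentrations measured by ethanol protein precipitation and LC-MS for pharmacokinetic parameters.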"}, "[2]": {"molecular_target": "T1, human amylin receptor (hAMYR3) (Homo sapiens, UniProt O60896+P30988)", "T1 construct": "host or cells: BHK (Baby Hamster Kidney), Hollex-1 cell line further transfected with RAMP3", "T1 sequence (P30988 25-474)": "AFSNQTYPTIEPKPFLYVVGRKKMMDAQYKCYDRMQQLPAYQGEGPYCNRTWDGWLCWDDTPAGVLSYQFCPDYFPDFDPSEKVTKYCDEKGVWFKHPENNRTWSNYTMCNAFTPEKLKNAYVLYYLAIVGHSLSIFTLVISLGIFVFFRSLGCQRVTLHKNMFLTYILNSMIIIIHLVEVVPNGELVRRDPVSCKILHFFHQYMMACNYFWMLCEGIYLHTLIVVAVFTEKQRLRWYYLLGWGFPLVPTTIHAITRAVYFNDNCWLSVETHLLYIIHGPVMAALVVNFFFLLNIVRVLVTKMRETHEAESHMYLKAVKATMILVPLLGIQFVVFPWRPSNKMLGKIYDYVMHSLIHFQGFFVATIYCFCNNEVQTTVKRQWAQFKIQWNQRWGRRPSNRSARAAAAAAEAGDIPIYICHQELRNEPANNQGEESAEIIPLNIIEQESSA", "T1 sequence (O60896 24-148)": "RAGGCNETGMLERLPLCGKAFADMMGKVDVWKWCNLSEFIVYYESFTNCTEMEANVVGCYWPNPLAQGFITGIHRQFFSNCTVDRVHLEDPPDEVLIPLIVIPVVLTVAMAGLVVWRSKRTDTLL", "experiment": "Human amylin receptor (hAMYR3) in vitro potency assay, CRE-luciferase reporter in BHK cells", "type": "cell-based", "conditions": "BHK hAMYR3/CRE-Luc cells, 3 hours incubation, assay buffer with 1% ovalbumin", "how_it_was_run": "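Luminescence from a CRE-driven luciferase reporter reflects cAMP-mediated receptor activation. Peptides were serially diluted (7 concentrations, 7-fold steps, typically starting near 10 nM) in buffer with 1% ovalbumin and applied for 3 h at 37 °C to BHK cells co-expressing calcitonin receptor (a) and RAMP3.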"}}, "note": "Starred links: 1 amine or outer side, 2 acyl side, 3 side chain; linkers in the order of their positions; H or OH if unused. Residues, ends and D or L forms follow the SMILES beside them. *: point of attachment. C20 diacid = O=C(O)CCCCCCCCCCCCCCCCCCC(=O)*; C18 diacid = O=C(O)CCCCCCCCCCCCCCCCC(=O)*; γGlu = O=C(O)[C@H](CCC(=O)[*:2])N[*:1]"}
{"smiles": "CC[C@H](C)[C@H](NC(=O)[C@@H]1CCCN1C(=O)CNC(=O)[C@H](Cc1ccccc1)NC(=O)[C@H](CC(N)=O)NC(=O)[C@H](CC(=O)O)NC(=O)[C@H](CO)NC(=O)[C@H](CO)NC(=O)[C@H](Cc1c[nH]cn1)NC(=O)[C@H](Cc1c[nH]cn1)NC(=O)[C@H](CC(C)C)NC(=O)[C@H](Cc1ccccc1)NC(=O)[C@H](CCC(=O)O)NC(=O)[C@H](C)NC(=O)[C@H](CC(C)C)NC(=O)[C@H](CCCNC(=N)N)NC(=O)[C@H](C)NC(=O)[C@@H](NC(=O)[C@H](CCC(N)=O)NC(=O)[C@H](C)NC(=O)[C@@H](NC(=O)[C@H](CO)NC(=O)[C@H](CC(C)C)NC(=O)[C@H](CCC(N)=O)NC(=O)[C@H](CO)NC(=O)[C@H](C)NC(=O)CC[C@H](NC(=O)CCCCCCCCCCCCCCCCC(=O)O)C(=O)O)[C@@H](C)O)[C@@H](C)O)C(=O)N[C@@H](CC(C)C)C(=O)N1CCC[C@H]1C(=O)N1CCC[C@H]1C(=O)N[C@H](C(=O)N[C@@H](CC(=O)O)C(=O)N[C@H](C(=O)NCC(=O)N[C@@H](CO)C(=O)N[C@@H](CC(N)=O)C(=O)N[C@H](C(=O)N1CCC[C@H]1C(N)=O)[C@@H](C)O)C(C)C)[C@@H](C)O", "note": "[Compound 22, N^1-[(4S)-4-carboxy-4-(17-carboxyheptadecanoylamino)butanoyl]-[Ala1,Ser2,Gln3,Leu4,Ser5,Ala7,Gln8,Ala10,Glu14,His17,Asp21,Pro25,Pro28,Pro29,Asp31,Pro37]-human amylin] ({C18 diacid-γGlu}-ASQLSTAQTARLAEFLHHSSDNFGPILPPTDVGSNTP-NH2)", "values": [{"measurement": "half-life", "setting": "[1]", "result": 96.6, "unit": "h"}, {"measurement": "AUC/D", "setting": "[1]", "result": 24.43, "unit": "kg·h/L"}, {"measurement": "Cmax/D", "setting": "[1]", "result": 0.35, "unit": "kg/L"}, {"measurement": "EC50", "setting": "[2]", "result": 1.22, "unit": "pM"}]}
{"smiles": "CC[C@H](C)[C@H](NC(=O)[C@@H]1CCCN1C(=O)CNC(=O)[C@H](Cc1ccccc1)NC(=O)[C@H](Cc1c[nH]cn1)NC(=O)[C@H](Cc1c[nH]cn1)NC(=O)[C@H](CC(C)C)NC(=O)[C@H](Cc1ccccc1)NC(=O)[C@H](CCC(=O)O)NC(=O)[C@H](C)NC(=O)[C@H](CC(C)C)NC(=O)[C@H](CCCNC(=N)N)NC(=O)[C@H](CCC(N)=O)NC(=O)[C@@H](NC(=O)[C@H](CCC(N)=O)NC(=O)[C@H](C)NC(=O)[C@@H](NC(=O)[C@H](CO)NC(=O)[C@H](CC(C)C)NC(=O)[C@H](Cc1c[nH]cn1)NC(=O)[C@H](CO)NC(=O)[C@H](C)NC(=O)CC[C@H](NC(=O)CCCCCCCCCCCCCCCCCCC(=O)O)C(=O)O)[C@@H](C)O)[C@@H](C)O)C(=O)N[C@@H](CC(C)C)C(=O)N1CCC[C@H]1C(=O)N1CCC[C@H]1C(=O)N[C@H](C(=O)N[C@@H](CC(=O)O)C(=O)N[C@H](C(=O)NCC(=O)N[C@@H](CO)C(=O)N[C@@H](CCC(=O)O)C(=O)N[C@H](C(=O)N1CCC[C@H]1C(N)=O)[C@@H](C)O)C(C)C)[C@@H](C)O", "note": "[Compound 4, N^1-[(4S)-4-carboxy-4-(19-carboxynonadecanoylamino)butanoyl]-[Ala1,Ser2,His3,Leu4,Ser5,Ala7,Gln8,Glu14,His17,Pro25,Pro28,Pro29,Asp31,Glu35,Pro37],des-(19-22)-human amylin] ({C20 diacid-γGlu}-ASHLSTAQTQRLAEFLHHFGPILPPTDVGSETP-NH2)", "values": [{"measurement": "half-life", "setting": "[1]", "result": 130, "unit": "h"}, {"measurement": "AUC/D", "setting": "[1]", "result": 21.24, "unit": "kg·h/L"}, {"measurement": "Cmax/D", "setting": "[1]", "result": 0.23, "unit": "kg/L"}, {"measurement": "EC50", "setting": "[2]", "result": 1.12, "unit": "pM"}]}
